Results taken from ChEMBL document CHEMBL1201862, “PubChem BioAssay data set” (2004).
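96-well plates; 48 h exposure; 5 concentrations. Endpoints by linear interpolation between flanking doses. Not reached: highest tested concentration assigned. Abbreviation: GI50, concentration required for 50% inhibition of growth.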 Activity calls are given as the source filed them. No stated cut-off is given here; in the data, active = GI50 up to about 1.1 µM and inactive = higher.

Assays:
Assay in all cases: NCI anticancer screen, dose series, 48 h
DU-145 = test system: DU-145
Malme-3M = test system: Malme-3M
UACC-257 = test system: UACC-257
T47D = test system: T47D
SK-MEL-5 = test system: SK-MEL-5
A498 = test system: A498
MOLT-4 = test system: MOLT-4
SNB-19 = test system: SNB-19
HT-29 = test system: HT-29
TK-10 = test system: TK-10
MDA-MB-435 = test system: MDA-MB-435
CAKI-1 = test system: CAKI-1
SF-268 = test system: SF-268
HOP-62 = test system: HOP-62
NCI-H460 = test system: NCI-H460
BT-549 = test system: BT-549
IGROV-1 = test system: IGROV-1
SF-295 = test system: SF-295
SNB-75 = test system: SNB-75
K562 = test system: K562
UACC-62 = test system: UACC-62
ACHN = test system: ACHN
SW-620 = test system: SW-620
SR = test system: SR
CCRF-CEM = test system: CCRF-CEM
SK-OV-3 = test system: SK-OV-3
HCT-15 = test system: HCT-15
SK-MEL-2 = test system: SK-MEL-2
RPMI-8226 = test system: RPMI-8226
PC-3 = test system: PC-3
NCI-H522 = test system: NCI-H522
MDA-MB-231 = test system: MDA-MB-231
NCI/ADR-RES = test system: NCI/ADR-RES
OVCAR-8 = test system: OVCAR-8
NCI-H23 = test system: NCI-H23
SN12C = test system: SN12C
COLO 205 = test system: COLO 205
M14 = test system: M14
EKVX = test system: EKVX
Hs-578T = test system: Hs-578T
HOP-92 = test system: HOP-92
OVCAR-5 = test system: OVCAR-5
HCT-116 = test system: HCT-116
A549 = test system: A549
MCF7 = test system: MCF7
RXF 393 = test system: RXF 393
HL-60 = test system: HL-60
LOX IMVI = test system: LOX IMVI
SK-MEL-28 = test system: SK-MEL-28
U-251 = test system: U-251
KM12 = test system: KM12
OVCAR-3 = test system: OVCAR-3
NCI-H226 = test system: NCI-H226
786-0 = test system: 786-0
UO-31 = test system: UO-31
SF-539 = test system: SF-539
MDA-N = test system: MDA-N
HCC 2998 = test system: HCC 2998
OVCAR-4 = test system: OVCAR-4

With O=C(Cc1ccccc1)Nc1nc2ccc(Cl)cc2c2nc(-c3ccco3)nn12 the GI50 (DU-145) was > 100 µM (inactive), the GI50 (Malme-3M) was 53.7 µM (inactive) and the GI50 (UACC-257) was > 100 µM (inactive). The GI50 (T47D) was > 100 µM (inactive), the GI50 (SK-MEL-5) was 89.5 µM (inactive) and the GI50 (A498) was > 60.3 µM (inactive). For the same molecule, the GI50 (MOLT-4) was > 100 µM (inactive), the GI50 (SNB-19) was > 35.7 µM (inactive) and the GI50 (HT-29) was > 100 µM (inactive). The GI50 (TK-10) was > 35.1 µM (inactive), the GI50 (MDA-MB-435) was > 100 µM (inactive) and the GI50 (CAKI-1) was > 100 µM (inactive). The GI50 (SF-268) was > 62.8 µM (inactive), the GI50 (HOP-62) was 16.4 µM (inactive) and the GI50 (NCI-H460) was > 100 µM (inactive). For the same molecule, the GI50 (BT-549) was > 100 µM (inactive), the GI50 (IGROV-1) was > 21.6 µM (inactive) and the GI50 (SF-295) was 21.7 µM (inactive). For the same molecule, the GI50 (SNB-75) was 5.02 µM (inactive), the GI50 (K562) was > 100 µM (inactive) and the GI50 (UACC-62) was > 100 µM (inactive). The GI50 (ACHN) was 5.02 µM (inactive), the GI50 (SW-620) was > 100 µM (inactive) and the GI50 (SR) was 3.44 µM (inactive). For the same molecule, the GI50 (CCRF-CEM) was > 100 µM (inactive), the GI50 (SK-OV-3) was 39.6 µM (inactive) and the GI50 (HCT-15) was greater than 100 µM. The GI50 (SK-MEL-2) was > 67.9 µM (inactive), the GI50 (RPMI-8226) was > 100 µM (inactive) and the GI50 (PC-3) was > 100 µM (inactive). The GI50 (NCI-H522) was > 100 µM (inactive), the GI50 (MDA-MB-231) was > 21.2 µM (inactive) and the GI50 (NCI/ADR-RES) was > 41.2 µM (inactive). For the same molecule, the GI50 (OVCAR-8) was > 57.9 µM (inactive), the GI50 (NCI-H23) was 47.1 µM (inactive) and the GI50 (SN12C) was > 100 µM (inactive). The GI50 (COLO 205) was > 100 µM (inactive), the GI50 (M14) was > 100 µM (inactive) and the GI50 (EKVX) was > 70.8 µM (inactive). The GI50 (Hs-578T) was 11 µM (inactive), the GI50 (HOP-92) was 2.48 µM (inactive) and the GI50 (OVCAR-5) was > 100 µM (inactive). The GI50 (HCT-116) was 14.8 µM (inactive), the GI50 (A549) was > 100 µM (inactive) and the GI50 (MCF7) was 4.46 µM (inactive). The GI50 (RXF 393) was 17.7 µM (inactive), the GI50 (HL-60) was > 100 µM (inactive) and the GI50 (LOX IMVI) was > 100 µM (inactive). For the same molecule, the GI50 (SK-MEL-28) was > 100 µM (inactive), the GI50 (U-251) was 16.8 µM (inactive) and the GI50 (KM12) was > 100 µM (inactive). The GI50 (OVCAR-3) was > 100 µM (inactive), the GI50 (NCI-H226) was > 35.6 µM (inactive) and the GI50 (786-0) was 10.1 µM (inactive). For the same molecule, the GI50 (UO-31) was > 100 µM (inactive), the GI50 (SF-539) was 7.69 µM (inactive) and the GI50 (MDA-N) was > 100 µM (inactive). The GI50 (HCC 2998) was > 100 µM (inactive).

For CCC(=O)OCN(C)c1nc(N(C)COC(=O)CC)nc(N(C)COC(=O)CC)n1, the GI50 (DU-145) was 37 µM (inactive), the GI50 (Malme-3M) was 32.6 µM (inactive) and the GI50 (UACC-257) was 38.9 µM (inactive). For the same molecule, the GI50 (T47D) was 35.3 µM (inactive), the GI50 (SK-MEL-5) was 22.9 µM (inactive) and the GI50 (A498) was 49 µM (inactive). For the same molecule, the GI50 (MOLT-4) was 20.8 µM (inactive), the GI50 (SNB-19) was > 100 µM (inactive) and the GI50 (HT-29) was 26.9 µM (inactive). The GI50 (TK-10) was > 100 µM (inactive), the GI50 (OVCAR-4) was 30.5 µM (inactive) and the GI50 (MDA-MB-435) was > 100 µM (inactive). For the same molecule, the GI50 (CAKI-1) was 63.8 µM (inactive), the GI50 (HOP-62) was > 100 µM (inactive) and the GI50 (NCI-H460) was 33.4 µM (inactive). The GI50 (BT-549) was 32.9 µM (inactive), the GI50 (IGROV-1) was > 100 µM (inactive) and the GI50 (SF-295) was > 100 µM (inactive). The GI50 (SNB-75) was > 100 µM (inactive), the GI50 (K562) was 13.7 µM (inactive) and the GI50 (UACC-62) was 18.6 µM (inactive). For the same molecule, the GI50 (SW-620) was 26.9 µM (inactive), the GI50 (SR) was 26.7 µM (inactive) and the GI50 (CCRF-CEM) was 24.8 µM (inactive). For the same molecule, the GI50 (SK-OV-3) was > 100 µM (inactive), the GI50 (HCT-15) was 21.4 µM and the GI50 (SK-MEL-2) was 18.2 µM (inactive). The GI50 (RPMI-8226) was 27.4 µM (inactive), the GI50 (PC-3) was 27.4 µM (inactive) and the GI50 (MDA-MB-231) was 57.4 µM (inactive). The GI50 (NCI/ADR-RES) was 32.4 µM (inactive), the GI50 (OVCAR-8) was 69.3 µM (inactive) and the GI50 (NCI-H23) was > 100 µM (inactive). The GI50 (SN12C) was 39.8 µM (inactive), the GI50 (COLO 205) was 24.3 µM (inactive) and the GI50 (M14) was 28.1 µM (inactive). The GI50 (Hs-578T) was > 100 µM (inactive), the GI50 (HOP-92) was 89.5 µM (inactive) and the GI50 (OVCAR-5) was > 100 µM (inactive). For the same molecule, the GI50 (HCT-116) was 22.9 µM (inactive), the GI50 (MCF7) was 42 µM (inactive) and the GI50 (RXF 393) was 10.9 µM (inactive). The GI50 (HL-60) was > 10 µM (inactive), the GI50 (LOX IMVI) was 18 µM (inactive) and the GI50 (SK-MEL-28) was 64.9 µM (inactive). The GI50 (U-251) was > 100 µM (inactive), the GI50 (KM12) was 34.5 µM (inactive) and the GI50 (OVCAR-3) was > 100 µM (inactive). For the same molecule, the GI50 (NCI-H226) was 85.5 µM (inactive), the GI50 (UO-31) was 56.6 µM (inactive) and the GI50 (MDA-N) was 33.3 µM (inactive). For the same molecule, the GI50 (HCC 2998) was 24.6 µM (inactive).

O=C1c2ccccc2-n2nnnc2C2CSCN12 (stereo not given) was tested, and the GI50 (DU-145) was > 100 µM (inactive), the GI50 (Malme-3M) was > 100 µM (inactive) and the GI50 (UACC-257) was > 100 µM (inactive). For the same molecule, the GI50 (T47D) was > 100 µM (inactive), the GI50 (SK-MEL-5) was > 100 µM (inactive) and the GI50 (A498) was > 100 µM (inactive). For the same molecule, the GI50 (MOLT-4) was > 100 µM (inactive), the GI50 (SNB-19) was > 100 µM (inactive) and the GI50 (HT-29) was > 100 µM (inactive). For the same molecule, the GI50 (TK-10) was > 100 µM (inactive), the GI50 (OVCAR-4) was > 100 µM (inactive) and the GI50 (MDA-MB-435) was > 100 µM (inactive). The GI50 (CAKI-1) was > 100 µM (inactive), the GI50 (SF-268) was > 100 µM (inactive) and the GI50 (HOP-62) was > 100 µM (inactive). For the same molecule, the GI50 (NCI-H460) was > 100 µM (inactive), the GI50 (BT-549) was > 100 µM (inactive) and the GI50 (IGROV-1) was > 100 µM (inactive). For the same molecule, the GI50 (SF-295) was > 100 µM (inactive), the GI50 (SNB-75) was > 100 µM (inactive) and the GI50 (K562) was 56.2 µM (inactive). For the same molecule, the GI50 (UACC-62) was > 100 µM (inactive), the GI50 (ACHN) was > 100 µM (inactive) and the GI50 (SW-620) was > 100 µM (inactive). For the same molecule, the GI50 (SR) was > 100 µM (inactive), the GI50 (CCRF-CEM) was > 100 µM (inactive) and the GI50 (SK-OV-3) was > 100 µM (inactive). For the same molecule, the GI50 (HCT-15) was greater than 100 µM, the GI50 (SK-MEL-2) was > 100 µM (inactive) and the GI50 (RPMI-8226) was > 100 µM (inactive). For the same molecule, the GI50 (PC-3) was > 100 µM (inactive), the GI50 (NCI-H522) was > 100 µM (inactive) and the GI50 (MDA-MB-231) was > 100 µM (inactive). The GI50 (NCI/ADR-RES) was > 100 µM (inactive), the GI50 (OVCAR-8) was > 100 µM (inactive) and the GI50 (SN12C) was > 100 µM (inactive). For the same molecule, the GI50 (COLO 205) was > 100 µM (inactive), the GI50 (M14) was > 100 µM (inactive) and the GI50 (EKVX) was > 100 µM (inactive). The GI50 (Hs-578T) was > 100 µM (inactive), the GI50 (OVCAR-5) was > 100 µM (inactive) and the GI50 (HCT-116) was > 100 µM (inactive). The GI50 (A549) was > 100 µM (inactive), the GI50 (MCF7) was > 100 µM (inactive) and the GI50 (RXF 393) was > 100 µM (inactive). For the same molecule, the GI50 (LOX IMVI) was > 100 µM (inactive), the GI50 (SK-MEL-28) was > 100 µM (inactive) and the GI50 (U-251) was > 100 µM (inactive). For the same molecule, the GI50 (KM12) was > 100 µM (inactive), the GI50 (OVCAR-3) was > 100 µM (inactive) and the GI50 (NCI-H226) was > 100 µM (inactive). The GI50 (786-0) was > 100 µM (inactive), the GI50 (UO-31) was > 100 µM (inactive) and the GI50 (MDA-N) was > 100 µM (inactive). The GI50 (HCC 2998) was > 100 µM (inactive).
